{
  "source": "patent US8580321B2",
  "about": "“Method for reducing the effects of chemotherapy using flagellin related polypeptides” (priority 2003, dated 2013)",
  "key": {"[1]": {"test_system": "small intestinal epithelium of irradiated mice", "assay": "Pathomorphological analysis of small intestine and skin after gamma irradiation", "assay_type": "in vivo, mouse", "conditions": "for intestinal morphology 5 days after 14 Gy: pretreated mice, villi/crypt structure; for radiation-induced disappearance of sebaceous glands: skin, 5 days after 14 Gy", "experimental": "Tissue samples of intestinal mucosa were taken 5 days after 14 Gy irradiation from mice pretreated with flagellin and control mice. Control animals were treated with 5.0 μg/mouse (0.2 mg/kg) bacterial RNA-polymerase. […] Tissue samples (small intestine and skin from the back) were also obtained from mice treated with the AA′ fragment. The results shown in FIG. 17 are areas of typical morphology observed over a set of at least 3 mice.\nFlagellin (and CBLB502) may induce NF-κB activity via binding to TLR5. Accordingly, CBLB502-mediated radioprotection may be dependent on the presence and activity of TLR5. MOLF/Ei mice are a known natural model of TLR5 deficiency (Sebastiani G., et. al., Genomics. 2000 Mar. 15; 64(3):230-40). To verify that CBLB502-mediated radioprotection is indeed TLR5-dependent, we tested the protection of small intestine from radiation by CBLB502 in MOLF/Ei and NIH-Swiss mice (FIG. 35). Both strains of mice were given 0.2 mg/kg CBLB502 (AA′) or PBS 0.5 hr before 15 Gy of gamma-irradiation. The samples of small intestine were obtained 4 days after irradiation, stained by hematoxylin-eosin and subjected to pathomorphological analysis."}, "[2]": {"assay": "Blood urea (QuantiChrom Urea Assay Kit) as renal toxicity of cisplatinum", "conditions": "0.04 mg/kg s.c., Day 4 post-treatment, n=3", "description": "Urea was detected in mouse blood serum at Day 4 post-treatment using a QuantiChrom Urea Assay Kit (BioAssay Systems)."}, "colonic crypts": {"test_system": "colonic crypts", "assay": "BrdU incorporation in colonic crypts", "assay_type": "in vivo, mouse", "conditions": "BrdU injected 1 hour after CBLB502 i.p.", "experimental": "The colon is much less radiosensitive than small intestine. To further examine the relationship between reduced proliferation in the small intestine and radioprotection, we determined the effect of CBLB502 on BrdU incorporation in the colon. CBLB502 or PBS was injected i.p. in mice, BrdU was injected 1 hour later and samples of […] were obtained after additional 1.5 hours (FIG. 34)."}, "[3]": {"test_system": "MeI-7, MeI-29, HCT116, HT1080, NKE and MAEC cells", "assay": "Growth inhibition assay after gamma-irradiation in multiple cell lines", "assay_type": "cell-based", "conditions": "2 μg/ml, irradiated (10, 15 Gy) or not, 48 hours", "experimental": "Based on the results using A549 cells, several additional tumor cell lines (human melanoma MeI-7 and MeI-29, colon cancer HCT116, […] HT1080), immortalized kidney epithelial cells (NKE) and normal mouse aortal endothelial cells (MAEC)) were tested in growth inhibition assay after 10 and 15 Gy of gamma-irradiation, as compared with intact control, with or without pretreatment with CBLB502. Cells were seeded in 96-well plates night before the treatments. CBLB502 (2 μg/ml) was added to the wells 4 hrs, 1 hr or 10 min before irradiation (all points were done in quadruplicate). 48 hours later, methylene blue staining was performed to determine the relative amount of the viable cells in the wells. The percent of growth inhibition was calculated from the OD650 in control non-irradiated wells, taken as 0% inhibition."}, "[4]": {"test_system": "NIH Swiss mice treated with cisplatinum"}, "A549 cells": {"test_system": "A549 cells", "assay": "Cell growth inhibition assay (methylene blue) after gamma-irradiation, A549", "assay_type": "cell-based, human", "conditions": "2 μg/ml, with or without 7 or 10 Gy, 72 hours", "experimental": "Tumor cells were seeded in wells of three 96-well plates in 3 different densities (0.5×10^4, 1×10^4 and 2×10^4 cells/well, producing single-cell, spare or semi-contact layer). After cells had attached to plastic, CBLB502 (2 μg/ml) was added to the wells of non-irradiated cells, or 15 min prior to 7 Gy or 10 Gy of gamma-irradiation. Control wells received equal volume of vehicle (PBS). All points were done in quadruplicate. 72 hours after irradiation, medium was replaced with methylene blue in 50%-methanol and the relative numbers of viable cells in wells were measured using spectrophotometer at 650 nm. This experiment was also repeated with fixed dose of 1×10^4 A549 cells/well, CBLB502 was added 1 hour before 5, 10 or 15 Gy of gamma-irradiation (data not shown). We observed a similar effect of flagellin in all tested experiment conditions."}, "[5]": {"assay": "Cisplatinum-induced weight loss in FVB mice", "assay_type": "in vivo, mouse", "conditions": "CBLB502 0.04 mg/kg s.c. 30 min prior to cisplatinum 10 mg/kg i.p., n=3"}, "[6]": {"test_system": "NIH3T3-derived sarcoma and B16 melanoma tumors", "assay": "Tumor sensitivity to radiation treatment in syngeneic mouse tumor models", "assay_type": "in vivo", "experimental": "Left Panel: NIH3T3-derived sarcoma cells were injected s.c. in NIH-Swiss mice. When tumors reached 7-10 mm in diameter, mice received three 4.3 Gy doses of total body irradiation, with or without pretreatment with AA′. […] U/t: untreated; AA′: AA′ with no irradiation; 3×4Gy: irradiation only; 3×4Gy+AA′: AA′ and irradiation. (The shape of curves reflects slow growth of tumors that is a characteristic of this model). […] Right Panel: The experiment was done in the same way with another syngeneic mouse tumor model: B16 melanoma (C57BL6 background). Treatment was applied when tumors reached 4-5 mm in diameter and involved three subsequent 4 Gy doses of total body gamma radiation applied with or without pretreatment with AA′ (30 min. before irradiation, 5 μg/mouse).\nThe ultimate test of a potential radioprotective agent in cancer treatment is tumor selectivity, its ability to protect normal tissues while providing no or little protection to the tumor. We injected 10 NIH-Swiss mice subcutaneously, in both flanks (20 tumors total), with 2×10^6 cells of syngeneic sarcoma cell line model (NIH3T3-derived and spontaneously transformed sarcoma with p53 inactivated by dominant negative inhibitor GSE56). When tumors reached the size of 5-7 mm in diameter (day 5), the mice were injected subcutaneously with 0.2 mg/kg of AA′ or saline vehicle and irradiated 1 hours later with […] of total-body y-irradiation (3×4.3 Gy=12.9 Gy total dose). Injections and irradiations were done at days 5, 6 and 7."}, "[7]": {"conditions": "0.2 mg/kg 0.5 hr before 15 Gy, samples 4 days after irradiation"}, "[8]": {"conditions": "CBLB502 0.04 mg/kg s.c. 30 min before cisplatinum 20 mg/kg i.p."}},
  "data": [
    {"substance": "AA′: flagellin fragment (1-177)-Linker-(402-505), SEQ ID NO: 8", "values": [
      {"measurement": "intestinal morphology after 15 Gy, NIH-Swiss (TLR5 wild type) mice", "setting": "[1]; [7]", "result": "preservation of intestinal morphology"},
      {"measurement": "intestinal morphology after 15 Gy, TLR5-deficient MOLF/Ei mice", "setting": "[1]; [7]", "result": "no improving effect"},
      {"measurement": "intestinal morphology 5 days after 14 Gy", "setting": "[1]", "result": "near-normal intestinal morphology"},
      {"measurement": "radiation-induced disappearance of sebaceous glands", "setting": "[1]", "result": "prevented"},
      {"measurement": "mean OD 490 (blood urea), CLBL502 alone", "setting": "[2]", "result": "less than 0.50"},
      {"measurement": "BrdU incorporation in colon", "setting": "colonic crypts", "result": "no effect"},
      {"measurement": "effect on tumor cell growth", "setting": "[3]", "result": "no or only a slight inhibitory effect"},
      {"measurement": "mean weight loss on any given day, cisplatinum 10 mg/kg with CBLB502", "setting": "[4]; CBLB502 0.04 mg/kg 30 min prior, n=11", "result": "≤ 15", "unit": "%"},
      {"measurement": "weight response, cisplatinum 10 mg/kg with CBLB502", "setting": "[4]; CBLB502 0.04 mg/kg s.c. 30 min before cisplatinum 10 mg/kg i.p.", "result": "not losing weight"},
      {"measurement": "maximum weight loss, cisplatinum 20 mg/kg with CBLB502", "setting": "[4]; [8]", "result": "≤ 20", "unit": "%"},
      {"measurement": "survival of animals, cisplatinum 20 mg/kg with CBLB502", "setting": "[4]; [8]", "result": 100, "unit": "%"},
      {"measurement": "behavior, cisplatinum with single injection of CBLB502", "setting": "[4]; FIG. 39D", "result": "active animals"},
      {"measurement": "deaths, cisplatinum 10 mg/kg with CBLB502", "setting": "[4]; FIG. 39 experiment", "result": "No deaths"},
      {"measurement": "mice that died, cisplatinum 10 mg/kg with CBLB502", "setting": "[4]; death at Day 13, remaining mice survived to at least Day 30", "result": "one mouse out of eleven"},
      {"measurement": "effect on cell numbers", "setting": "A549 cells", "result": "no or slight effect"},
      {"measurement": "mean weight loss compared to cisplatinum alone, FVB mice", "setting": "[5]", "result": "lower mean weight loss"},
      {"measurement": "mice cured and surviving radiotherapy plus AA′", "setting": "[6]; 3×4.3 Gy with AA′, irradiated-only mice all died by day 18", "result": 100, "unit": "%"},
      {"measurement": "tumor growth in unirradiated mice", "setting": "[6]; AA′ without irradiation", "result": "decrease in the growth rate of tumors"},
      {"measurement": "radiation-induced shrinkage of tumors", "setting": "[6]; s.c. 0.2 mg/kg 1 hour before each of 3 irradiations, sarcoma in NIH-Swiss mice", "result": "enhanced"},
      {"measurement": "effect on radiosensitivity of tumors", "setting": "[6]; sarcoma and B16 melanoma", "result": "no effect"}
    ]},
    {"substance": "flagellin: Salmonella dublin FliC flagellin, 505 amino acids, SEQ ID NO: 1; recombinant full-length protein", "values": [
      {"measurement": "morphology of small intestinal epithelium after 15 Gy", "setting": "[1]; i.v. 0.25 mg/kg, 15 Gy, HE stained sections", "result": "close to normal morphology"},
      {"measurement": "intestinal morphology 5 days after 14 Gy", "setting": "[1]", "result": "near-normal intestinal morphology"},
      {"measurement": "radiation-induced disappearance of sebaceous glands", "setting": "[1]", "result": "prevented"}
    ]}
  ]
}
